Measurements from patent publication US6395684B1, “Selective herbicides based on a substituted phenyl sulfonyl amino carbonyl triazolinone” (Bayer Aktiengesellschaft, priority 1998, dated 2002).
Where a name gives a salt, the structure may show the parent alone.

How the values were obtained:
Type in all cases: in vivo
Lolium = experiment: Pre-emergence test/greenhouse; conditions: 30 g ai./ha, greenhouse, after three weeks
Procedure: (§1) Pre-emergence Test/greenhouse Solvent: 5 parts by weight of acetone Emulsifier: 1 part by weight of alkylaryl polyglycol ether To produce a suitable preparation of active compound, 1 part by weight of active compound is mixed with the stated amount of solvent, the stated amount of emulsifier is added and the concentrate is diluted with water to the desired concentration. Seeds of the test plants are sown in normal soil. After about 24 hours, the soil is sprayed with the preparation of active compound such that the particular amount of active compound desired is applied per unit area. The concentration of the spray liquor is chosen so that the particular amount of active compound desired is applied in 500 litres of water per hectare. After three weeks, the degree of damage to the plants is tested in % damage in comparison to the development of the untreated control. The figures denote: 0% no effect (like untreated control) 100%=total destruction

Setaria = experiment: Pre-emergence test/greenhouse; conditions: 30 g ai./ha, greenhouse, after three weeks
Procedure: as §1

Avena = experiment: Pre-emergence test/greenhouse; conditions: greenhouse, after three weeks
Procedure: as §1

Poa = experiment: Pre-emergence test/greenhouse; conditions: 15 g ai./ha, greenhouse, after three weeks
Procedure: as §1

Wheat [1] = experiment: Pre-emergence test/greenhouse; conditions: greenhouse; for degree of damage to the plants (% damage in comparison to the untreated control): Wheat, after three weeks
Procedure: as §1

Alopecurus = experiment: Pre-emergence test/greenhouse; conditions: greenhouse, after three weeks
Procedure: as §1

Amaranthus = experiment: Pre-emergence test/greenhouse; conditions: 15 g ai./ha, greenhouse, after three weeks
Procedure: as §1

Sinapis = experiment: Pre-emergence test/greenhouse; conditions: 15 g ai./ha, greenhouse, after three weeks
Procedure: as §1

Bromus = experiment: Pre-emergence test/greenhouse; conditions: greenhouse, after three weeks
Procedure: as §1

Agropyron = experiment: Pre-emergence test/greenhouse; conditions: 15 g ai./ha, greenhouse, after three weeks
Procedure: as §1

winter wheat = experiment: Post emergence tests/outdoors (Example C, Germany and France), crop compatibility; conditions: 42 g of a.i./ha to 45 g of a.i./ha, post-emergence (spring), outdoors, 1 to 8 weeks after the treatment, 439 tests
Procedure: Post Emergence Tests/outdoors Under outdoor conditions, the sodium salt of the compound of the formula (I) was tested in winter wheat in Germany and France against economically important weeds. The small-plot experiments were carried out on cultivated land under agricultural use, with cultivation and climate conditions which can be considered to be representative for the period of the trial. Areas with particularly extensive weed growth were chosen by way of preference. The active compound was applied by the post-emergence method (spring) across the area by the spray method, with an average droplet size. To produce a useful preparation of active compound, the active compound was formulated as 70 WP or 70 WG (70% w/w water-dispersible powder or granules) and applied with customary amounts of water. To assess the crop compatibility, from 1 to 8 weeks after the treatment, plant growth inhibitions or […] of the leaf area were assessed in % damage in comparison to the development of the untreated control. At different intervals after the treatment, the herbicidal activity was assessed as % reduction in comparison to the untreated control, based on the weed development. The figures denote: 0%=no damage of the crops or no herbicidal effect, 100%=total destruction of the crops or the weeds.

Wheat [2] = experiment: Post-emergence test/outdoors (Example E, California), crop compatibility; conditions: 42 g a.i./ha to 45 g a.i./ha, + SAS, outdoors, 7 tests

CCCOc1nn(C(=O)NS(=O)(=O)c2ccccc2C(=O)OC)c(=O)n1C [(I)-Na-salt, 2-(2-methoxycarbonyl-phenylsulphonylaminocarbonyl)-4-methyl-5-propoxy-2,4-dihydro-3H-1,2,4-triazol-3-one]
degree of damage to the plants (% damage in comparison to the untreated control) (Lolium): 80%
degree of damage to the plants (% damage in comparison to the untreated control) (Setaria): 90%
degree of damage to the plants (% damage in comparison to the untreated control) (Avena; 15 g ai./ha): 80%
degree of damage to the plants (% damage in comparison to the untreated control) (Avena; 30 g ai./ha): 90%
degree of damage to the plants (% damage in comparison to the untreated control) (Poa): 90%
degree of damage to the plants (% damage in comparison to the untreated control) (Wheat [1]; 15 g ai./ha): 0%
degree of damage to the plants (% damage in comparison to the untreated control) (Wheat [1]; 30 g ai./ha): 0%
compatibility with crop plants (wheat), in words (Wheat [1]; sodium salt of (I) at 15 g/ha to 60 g/ha): very good compatibility
degree of damage to the plants (% damage in comparison to the untreated control) (Alopecurus; 15 g ai./ha): 95%
degree of damage to the plants (% damage in comparison to the untreated control) (Alopecurus; 30 g ai./ha): 95%
degree of damage to the plants (% damage in comparison to the untreated control) (Amaranthus): 95%
degree of damage to the plants (% damage in comparison to the untreated control) (Sinapis): 90%
degree of damage to the plants (% damage in comparison to the untreated control) (Bromus; 15 g ai./ha): 90%
degree of damage to the plants (% damage in comparison to the untreated control) (Bromus; 30 g ai./ha): 90%
degree of damage to the plants (% damage in comparison to the untreated control) (Agropyron): 90%
Damage to the crop (wheat) (winter wheat): 2%
Damage to the crop (wheat) (Wheat [2]): 5%
